Data published in patent US8404679B2, “Pyrrolidine derivatives as NK2 receptor antagonists” (Hoffmann-La Roche Inc., priority 2008, dated 2013).

Target: T1, human NK2 receptor (Homo sapiens, UniProt P21452)
T1 construct: purchased Perkin Elmer biosignal Inc. 6110510
T1 sequence (P21452 1-398): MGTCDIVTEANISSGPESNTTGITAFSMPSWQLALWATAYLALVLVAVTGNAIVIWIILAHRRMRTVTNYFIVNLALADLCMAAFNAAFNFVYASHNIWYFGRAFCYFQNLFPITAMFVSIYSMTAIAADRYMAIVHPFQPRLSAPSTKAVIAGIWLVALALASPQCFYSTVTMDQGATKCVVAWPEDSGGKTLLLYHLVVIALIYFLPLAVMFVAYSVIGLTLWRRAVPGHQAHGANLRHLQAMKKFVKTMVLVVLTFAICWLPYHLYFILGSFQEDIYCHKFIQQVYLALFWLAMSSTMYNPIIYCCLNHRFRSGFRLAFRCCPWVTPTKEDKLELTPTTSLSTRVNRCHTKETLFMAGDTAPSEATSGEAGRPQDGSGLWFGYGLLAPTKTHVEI
Experiment: [3H]SR48968 competition binding assay
Details: [3H]SR48968 displacement, membranes of CHO cells stably expressing recombinant human NK2 receptor; Ki from IC50 by Cheng-Prussoff
Method in brief: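 Membranes from CHO cells stably expressing recombinant human NK2 were incubated 75 min at RT with [3H]SR48968 at its KD and 10 compound concentrations (0.0003–10 μM) in Tris-HCl pH 7.4, MnCl2, chymostatin, BSA. Filter-bound radioactivity was counted; Hill-fitted IC50 converted to Ki via Cheng-Prusoff.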

Row | SMILES | Ki [nM]
1 | COc1ncc(C(=O)N(C)[C@@H]2CN(C(=O)c3ccc(C#N)cc3)C[C@H]2c2ccc(Cl)c(Cl)c2)cn1 (racemic) [Example 76, rac-2-Methoxy-pyrimidine-5-carboxylic acid [(3S,4R)-1-(4-cyano-benzoyl)-4-(3,4-dichloro-phenyl)-pyrrolidin-3-yl]-methyl-amide] | 96
2 | Cc1ccc(C(=O)N(C)[C@@H]2CN(C(=O)c3ccc(C#N)cc3)C[C@H]2c2ccc(Cl)c(Cl)c2)cn1 (racemic) [Example 77, rac-N-[(3S,4R)-1-(4-Cyano-benzoyl)-4-(3,4-dichloro-phenyl)-pyrrolidin-3-yl]-6,N-dimethyl-nicotinamide] | 28.8
3 | CN(C(=O)c1ccc(Cl)nc1)[C@@H]1CN(C(=O)c2ccc(C#N)cc2)C[C@H]1c1ccc(Cl)c(Cl)c1 (racemic) [Example 78, rac-6-Chloro-N-[(3S,4R)-1-(4-cyano-benzoyl)-4-(3,4-dichloro-phenyl)-pyrrolidin-3-yl]-N-methyl-nicotinamide] | 7.8
4 | CN(C(=O)c1ccc(C#N)nc1)[C@@H]1CN(C(=O)c2ccc(C#N)cc2)C[C@H]1c1ccc(Cl)c(Cl)c1 (racemic) [Example 80, rac-6-Cyano-N-[(3S,4R)-1-(4-cyano-benzoyl)-4-(3,4-dichloro-phenyl)-pyrrolidin-3-yl]-N-methyl-nicotinamide] | 40
5 | CN(C(=O)c1ccc(C(F)(F)F)nc1)[C@@H]1CN(C(=O)c2ccc(C#N)cc2)C[C@H]1c1ccc(Cl)c(Cl)c1 (racemic) [Example 81, rac-N-[(3S,4R)-1-(4-Cyano-benzoyl)-4-(3,4-dichloro-phenyl)-pyrrolidin-3-yl]-N-methyl-6-trifluoromethyl-nicotinamide] | 5.8
6 | CN(C(=O)c1ccc(OCC(F)(F)F)nc1)[C@@H]1CN(C(=O)c2ccc(C#N)cc2)C[C@H]1c1ccc(Cl)c(Cl)c1 (racemic) [Example 82, rac-N-[(3S,4R)-1-(4-Cyano-benzoyl)-4-(3,4-dichloro-phenyl)-pyrrolidin-3-yl]-N-methyl-6-(2,2,2-trifluoro-ethoxy)-nicotinamide] | 11.7
7 | Cc1cncc(C(=O)N(C)[C@@H]2CN(C(=O)c3ccc(C#N)cc3)C[C@H]2c2ccc(Cl)c(Cl)c2)c1 (racemic) [Example 83, rac-N-[(3S,4R)-1-(4-Cyano-benzoyl)-4-(3,4-dichloro-phenyl)-pyrrolidin-3-yl]-5,N-dimethyl-nicotinamide] | 97.1
8 | CN(C(=O)c1ccc(F)nc1)[C@@H]1CN(C(=O)c2ccc(C#N)cc2)C[C@H]1c1ccc(Cl)c(Cl)c1 (racemic) [Example 85, rac-N-[(3S,4R)-1-(4-Cyano-benzoyl)-4-(3,4-dichloro-phenyl)-pyrrolidin-3-yl]-6-fluoro-N-methyl-nicotinamide] | 82.1
9 | COc1ccc(C(=O)N(C)[C@@H]2CN(C(=O)c3ccc(C#N)cc3)C[C@H]2c2ccc(Cl)c(Cl)c2)cn1 (racemic) [Example 86, rac-N-[(3S,4R)-1-(4-Cyano-benzoyl)-4-(3,4-dichloro-phenyl)-pyrrolidin-3-yl]-6-methoxy-N-methyl-nicotinamide] | 17.8
10 | COc1ccc(C(=O)N(C)[C@H]2CN(C(=O)C3CCN(C(=O)C4(C)CC4)CC3)C[C@@H]2c2ccc(Cl)cc2)cc1C(F)(F)F (racemic) [Example 87, N-{(3RS,4SR)-4-(4-Chloro-phenyl)-1-[1-(1-methyl-cyclopropanecarbonyl)-piperidine-4-carbonyl]-pyrrolidin-3-yl}-4-methoxy-N-methyl-3-trifluoromethyl-benzamide] | 0.8
11 | COc1ccc(C(=O)N(C)[C@H]2CN(C(=O)c3ccc(F)cc3)C[C@@H]2c2ccc(Cl)cc2)cc1C(F)(F)F (racemic) [Example 88, N-[(3RS,4SR)-4-(4-Chloro-phenyl)-1-(4-fluoro-benzoyl)-pyrrolidin-3-yl]-4-methoxy-N-methyl-3-trifluoromethyl-benzamide] | 17.8
12 | COc1ccc(C(=O)N(C)[C@H]2CN(C(=O)c3ccc(F)cc3C)C[C@@H]2c2ccc(Cl)cc2)cc1C(F)(F)F (racemic) [Example 89, N-[(3RS,4SR)-4-(4-Chloro-phenyl)-1-(4-fluoro-2-methyl-benzoyl)-pyrrolidin-3-yl]-4-methoxy-N-methyl-3-trifluoromethyl-benzamide] | 23.3
13 | COc1ccc(C(=O)N(C)[C@H]2CN(C(=O)c3ccc(C#N)nc3)C[C@@H]2c2ccc(Cl)cc2)cc1C(F)(F)F (racemic) [Example 90, N-[(3RS,4SR)-4-(4-Chloro-phenyl)-1-(6-cyano-pyridine-3-carbonyl)-pyrrolidin-3-yl]-4-methoxy-N-methyl-3-trifluoromethyl-benzamide] | 11.7
14 | COc1ccc(C(=O)N(C)[C@H]2CN(C(=O)c3ccc(C#N)cc3)C[C@@H]2c2ccc(Cl)cc2)cc1C(F)(F)F (racemic) [Example 92, N-[(3RS,4SR)-4-(4-Chloro-phenyl)-1-(4-cyano-benzoyl)-pyrrolidin-3-yl]-4-methoxy-N-methyl-3-trifluoromethyl-benzamide] | 13.9
15 | COc1ccc(C(=O)N(C)[C@H]2CN(C(=O)C3CCN(C(=O)OC(C)(C)C)CC3)C[C@@H]2c2ccc(Cl)cc2)cc1C(F)(F)F (racemic) [Example 95, 4-{(3SR,4RS)-3-(4-Chloro-phenyl)-4-[(4-methoxy-3-trifluoromethyl-benzoyl)-methyl-amino]-pyrrolidine-1-carbonyl}-piperidine-1-carboxylic acid tert-butyl ester] | 2.2
16 | COc1ccc(C(=O)N(C)[C@H]2CN(C(=O)C3CCN(C(=O)C4(C)CC4)CC3)C[C@@H]2c2ccc(Cl)c(Cl)c2)cc1C(F)(F)F (racemic) [Example 96, N-{(3RS,4SR)-4-(3,4-Dichloro-phenyl)-1-[1-(1-methyl-cyclopropanecarbonyl)-piperidine-4-carbonyl]-pyrrolidin-3-yl}-4-methoxy-N-methyl-3-trifluoromethyl-benzamide] | 0.8
17 | CN(C(=O)c1ccc(Cl)c(C(F)(F)F)c1)[C@H]1CN(C(=O)C2CCN(C(=O)C3(C)CC3)CC2)C[C@@H]1c1ccc(Cl)c(Cl)c1 (racemic) [Example 97, 4-Chloro-N-{(3RS,4SR)-4-(3,4-dichloro-phenyl)-1-[1-(1-methyl-cyclopropanecarbonyl)-piperidine-4-carbonyl]-pyrrolidin-3-yl}-N-methyl-3-trifluoromethyl-benzamide] | 0.7
18 | CN(C(=O)c1ccc(F)c(OC(F)(F)F)c1)[C@H]1CN(C(=O)C2CCN(C(=O)C3(C)CC3)CC2)C[C@@H]1c1ccc(Cl)c(Cl)c1 (racemic) [Example 98, N-{(3RS,4SR)-4-(3,4-Dichloro-phenyl)-1-[1-(1-methyl-cyclopropanecarbonyl)-piperidine-4-carbonyl]-pyrrolidin-3-yl}-4-fluoro-N-methyl-3-trifluoromethoxy-benzamide] | 0.9
19 | COc1cc(C(=O)N(C)[C@H]2CN(C(=O)C3CCN(C(=O)C4(C)CC4)CC3)C[C@@H]2c2ccc(Cl)c(Cl)c2)ccc1Cl (racemic) [Example 99, 4-Chloro-N-{(3RS,4SR)-4-(3,4-dichloro-phenyl)-1-[1-(1-methyl-cyclopropanecarbonyl)-piperidine-4-carbonyl]-pyrrolidin-3-yl}-3-methoxy-N-methyl-benzamide] | 0.9
20 | CN(C(=O)c1ccc(F)cc1)[C@H]1CN(C(=O)C2CCN(C(=O)C3(C)CC3)CC2)C[C@@H]1c1ccc(Cl)c(Cl)c1 (racemic) [Example 100, N-{(3RS,4SR)-4-(3,4-Dichloro-phenyl)-1-[1-(1-methyl-cyclopropanecarbonyl)-piperidine-4-carbonyl]-pyrrolidin-3-yl}-4-fluoro-N-methyl-benzamide] | 2.3
21 | CN(C(=O)Cc1ccc(F)cc1)[C@H]1CN(C(=O)C2CCN(C(=O)C3(C)CC3)CC2)C[C@@H]1c1ccc(Cl)c(Cl)c1 (racemic) [Example 101, N-{(3RS,4SR)-4-(3,4-Dichloro-phenyl)-1-[1-(1-methyl-cyclopropanecarbonyl)-piperidine-4-carbonyl]-pyrrolidin-3-yl}-2-(4-fluoro-phenyl)-N-methyl-acetamide] | 16.2
22 | CN(C(=O)CCc1ccc(F)cc1)[C@H]1CN(C(=O)C2CCN(C(=O)C3(C)CC3)CC2)C[C@@H]1c1ccc(Cl)c(Cl)c1 (racemic) [Example 102, N-{(3RS,4SR)-4-(3,4-Dichloro-phenyl)-1-[1-(1-methyl-cyclopropanecarbonyl)-piperidine-4-carbonyl]-pyrrolidin-3-yl}-3-(4-fluoro-phenyl)-N-methyl-propionamide] | 2.4
23 | COc1ccc(C(=O)N(C)[C@H]2CN(C(=O)C3CCNCC3)C[C@@H]2c2ccc(Cl)cc2)cc1C(F)(F)F (racemic) [Example 103, N-[(3RS,4SR)-4-(4-Chloro-phenyl)-1-(piperidine-4-carbonyl)-pyrrolidin-3-yl]-4-methoxy-N-methyl-3-trifluoromethyl-benzamide] | 7
24 | COc1ccc(C(=O)N(C)[C@H]2CN(C(=O)C3CCN(C(C)C)CC3)C[C@@H]2c2ccc(Cl)cc2)cc1C(F)(F)F (racemic) [Example 104, N-[(3RS,4SR)-4-(4-Chloro-phenyl)-1-(1-isopropyl-piperidine-4-carbonyl)-pyrrolidin-3-yl]-4-methoxy-N-methyl-3-trifluoromethyl-benzamide] | 4.1
